In US6492384B1, “Imidazo (4,5-C) pyridine-4-one derivatives with factor XA inhibiting effect” (Merck Patent GmbH, priority 1998, dated 2002):

| SMILES | melting point [°C] |
| --- | --- |
| Cc1nc(-c2ccc3ccc(Cn4ccc5nc(C(C)C)n(Cc6ccc7ccc(-c8noc(C)n8)cc7c6)c5c4=O)cc3c2)no1 [BC2, 2-isopropyl-3-[7-(5-methyl[1,2,4]oxadiazol-3-yl)naphth-2-ylmethyl]-5-[7-(5-methyl[1,2,4]oxadiazol-3-yl)naphth-2-ylmethyl]-3,5-dihydroimidazo[4,5-c]pyridin-4-one] | 201 to 202 |
| Cc1nc(-c2ccc(Cn3ccc4nc(C(C)C)n(Cc5ccc6ccc(-c7noc(C)n7)cc6c5)c4c3=O)cc2)no1 [BC3, 2-isopropyl-3-[7-(5-methyl[1,2,4]oxadiazol-3-yl)naphth-2-ylmethyl]-5-[4-(5-methyl[1,2,4]oxadiazol-3-yl)benzyl]-3,5-dihydroimidazo[4,5-c]pyridin-4-one] | 172 to 173 |
| Cc1nc(-c2ccc3ccc(Cn4c(C(C)C)nc5ccn(Cc6ccccc6-c6noc(C)n6)c(=O)c54)cc3c2)no1 [BC4, 2-isopropyl-3-[7-(5-methyl[1,2,4]oxadiazol-3-yl)naphth-2-ylmethyl]-5-[2-(5-methyl[1,2,4]oxadiazol-3-yl)benzyl]-3,5-dihydroimidazo[4,5-c]pyridin-4-one] | 149 to 150 |
| Cc1nc(-c2ccc3ccc(Cn4c(C(C)C)nc5ccn(Cc6ccccc6)c(=O)c54)cc3c2)no1 [BC5, 2-isopropyl-3-[7-(5-methyl[1,2,4]oxadiazol-3-yl)naphth-2-ylmethyl]-5-benzyl-5H-imidazo[4,5-c]pyridin-4-one] | 112 to 113 |
